Results reported in publication PMC11625190 (Synthetic and Systems Biotechnology, 2024).

Test system: ChAER1
Experiment: HPLC quantification of 4-hydroxydihydrocinnamaldehyde formation, crude enzyme
Type: biochemical, Cephalotaxus harringtonia
Conditions: 1 mM NADPH, 50 mM Tris-HCl pH 7.5, 30 °C, 1 h

A Km of 467 µM was found for `O=C/C=C/c1ccc(O)cc1` [p-coumaraldehyde] in this work.
